# According to ChEMBL document CHEMBL4421719, “Modulation of k2p channels” (2016):
# The source made the active and inactive calls. No cut-off for these calls is given here.
# Key:
# Type in all cases: cell-based
# [1] = biological target: T1, Potassium channel subfamily K member 4 (Homo sapiens) (UniProt Q9NYG8); experiment: Activation of K2P4.1 (unknown origin) expressed in Xenopus oocytes assessed as effect on channel currents at -80 mV holding potential by two-electrode voltage clamp assay relative to control
# T1 sequence (whole entry): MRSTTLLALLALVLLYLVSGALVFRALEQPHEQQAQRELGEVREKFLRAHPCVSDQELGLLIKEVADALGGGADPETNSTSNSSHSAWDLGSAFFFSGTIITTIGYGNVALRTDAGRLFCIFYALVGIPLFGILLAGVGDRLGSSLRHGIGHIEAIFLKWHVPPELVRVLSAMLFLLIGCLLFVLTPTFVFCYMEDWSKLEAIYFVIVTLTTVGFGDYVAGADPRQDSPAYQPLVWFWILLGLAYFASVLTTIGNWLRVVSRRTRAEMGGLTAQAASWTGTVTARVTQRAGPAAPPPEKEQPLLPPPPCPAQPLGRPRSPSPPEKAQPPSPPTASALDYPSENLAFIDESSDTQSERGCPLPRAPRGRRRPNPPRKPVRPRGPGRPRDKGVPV
# [2] = Activation of K2P2.1 3G mutant (unknown origin) expressed in Xenopus oocytes assessed as effect on channel currents at -80 mV holding potential by two-electrode voltage clamp assay; settings: Homo sapiens
# [3] = biological target: T2, Potassium channel subfamily K member 2 (Homo sapiens) (UniProt O95069); experiment: Activation of K2P2.1 (unknown origin) expressed in HEK293T cell membranes in outside-out patch configuration assessed as effect on channel currents at 20 uM by two-electrode voltage clamp assay relative to control
# T2 sequence (whole entry): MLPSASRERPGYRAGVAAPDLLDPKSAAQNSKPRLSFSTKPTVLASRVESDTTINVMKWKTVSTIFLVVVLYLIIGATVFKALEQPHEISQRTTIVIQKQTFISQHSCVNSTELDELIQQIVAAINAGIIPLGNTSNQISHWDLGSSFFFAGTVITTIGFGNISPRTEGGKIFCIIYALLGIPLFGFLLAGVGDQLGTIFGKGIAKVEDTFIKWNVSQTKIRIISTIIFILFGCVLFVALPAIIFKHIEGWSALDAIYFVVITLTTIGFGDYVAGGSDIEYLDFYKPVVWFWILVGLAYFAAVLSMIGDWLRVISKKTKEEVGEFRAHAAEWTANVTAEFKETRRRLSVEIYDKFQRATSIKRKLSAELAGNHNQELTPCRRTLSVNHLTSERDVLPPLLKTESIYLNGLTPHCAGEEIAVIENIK
# [4] = biological target: Potassium channel subfamily K member 3 (Homo sapiens) (UniProt O14649); experiment: Activation of K2P3.1 (unknown origin) expressed in Xenopus oocytes assessed as effect on channel currents at -80 mV holding potential by two-electrode voltage clamp assay relative to control
# [5] = biological target: T3, Potassium channel subfamily K member 5 (Homo sapiens) (UniProt O95279); experiment: Activation of K2P5.1 (unknown origin) expressed in Xenopus oocytes assessed as effect on channel currents at -80 mV holding potential at 100 uM by two-electrode voltage clamp assay relative to control
# T3 sequence (whole entry): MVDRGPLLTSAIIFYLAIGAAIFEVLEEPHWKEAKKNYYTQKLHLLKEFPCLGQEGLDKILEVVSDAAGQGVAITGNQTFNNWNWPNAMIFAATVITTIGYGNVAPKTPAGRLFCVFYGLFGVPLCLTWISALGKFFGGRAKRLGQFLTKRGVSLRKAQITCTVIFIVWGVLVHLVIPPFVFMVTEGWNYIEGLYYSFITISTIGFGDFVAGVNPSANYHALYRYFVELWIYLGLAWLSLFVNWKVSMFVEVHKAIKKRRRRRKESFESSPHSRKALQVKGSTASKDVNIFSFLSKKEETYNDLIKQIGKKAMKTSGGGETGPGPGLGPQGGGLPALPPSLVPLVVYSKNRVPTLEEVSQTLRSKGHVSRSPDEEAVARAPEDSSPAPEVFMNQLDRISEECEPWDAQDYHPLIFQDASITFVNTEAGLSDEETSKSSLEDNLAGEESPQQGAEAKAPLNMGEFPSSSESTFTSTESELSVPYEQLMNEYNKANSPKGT
# [6] = biological target: T4, Potassium channel subfamily K member 10 (Homo sapiens) (UniProt P57789); experiment: Activation of K2P10.1 (unknown origin) expressed in Xenopus oocytes assessed as effect on channel currents at -80 mV holding potential at 100 uM by two-electrode voltage clamp assay relative to control
# T4 sequence (whole entry): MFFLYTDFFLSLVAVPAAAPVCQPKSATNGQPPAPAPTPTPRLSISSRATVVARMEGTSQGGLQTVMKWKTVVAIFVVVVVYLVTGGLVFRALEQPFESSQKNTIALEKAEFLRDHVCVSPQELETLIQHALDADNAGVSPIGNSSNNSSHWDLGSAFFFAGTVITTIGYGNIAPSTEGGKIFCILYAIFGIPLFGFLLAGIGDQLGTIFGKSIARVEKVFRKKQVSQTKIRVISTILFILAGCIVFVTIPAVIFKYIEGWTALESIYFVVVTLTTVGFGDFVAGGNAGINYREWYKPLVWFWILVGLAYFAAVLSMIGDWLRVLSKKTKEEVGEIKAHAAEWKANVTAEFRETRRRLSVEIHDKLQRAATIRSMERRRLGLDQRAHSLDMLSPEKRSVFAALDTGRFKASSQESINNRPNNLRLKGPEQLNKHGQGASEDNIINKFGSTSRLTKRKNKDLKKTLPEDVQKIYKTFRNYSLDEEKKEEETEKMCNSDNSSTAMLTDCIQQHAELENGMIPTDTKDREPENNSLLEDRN
# [7] = biological target: T1, Potassium channel subfamily K member 4 (Homo sapiens); experiment: Activation of K2P4.1 (unknown origin) expressed in Xenopus oocytes assessed as effect on channel currents at -80 mV holding potential at 100 uM by two-electrode voltage clamp assay relative to control
# [8] = biological target: T3, Potassium channel subfamily K member 5 (Homo sapiens); experiment: Activation of K2P5.1 (unknown origin) expressed in Xenopus oocytes assessed as effect on channel currents at -80 mV holding potential by two-electrode voltage clamp assay relative to control
# [9] = biological target: T2, Potassium channel subfamily K member 2 (Homo sapiens); experiment: Activation of K2P2.1 (unknown origin) expressed in whole HEK293T cells in assessed as effect on channel currents by measuring time of half-maximal activation at 20 uM by two-electrode voltage clamp assay relative to control
# [10] = biological target: Potassium voltage-gated channel subfamily KQT member 2 (Homo sapiens) (UniProt O43526); experiment: Activation of Kv7.2 (unknown origin) expressed in Xenopus oocytes assessed as effect on channel currents at 100 uM at -80 mV holding potential by two-electrode voltage clamp assay relative to control
# [11] = biological target: T5, Potassium channel subfamily K member 2 (Homo sapiens, UniProt O95069); experiment: Activation of K2P2.1 (unknown origin) expressed in Xenopus oocytes assessed as effect on channel currents at -80 mV holding potential by two-electrode voltage clamp assay
# T5 sequence (O95069 whole entry): T2 sequence (whole entry)
# [12] = biological target: T2, Potassium channel subfamily K member 2 (Homo sapiens); experiment: Activation of K2P2.1 (unknown origin) expressed in HEK293T cells assessed as effect on channel currents at -40 mV holding potential at 100 uM by two-electrode voltage clamp assay relative to control
# Potassium channel subfamily K member 3 (Homo sapiens), sequence (O14649 whole entry, looked up): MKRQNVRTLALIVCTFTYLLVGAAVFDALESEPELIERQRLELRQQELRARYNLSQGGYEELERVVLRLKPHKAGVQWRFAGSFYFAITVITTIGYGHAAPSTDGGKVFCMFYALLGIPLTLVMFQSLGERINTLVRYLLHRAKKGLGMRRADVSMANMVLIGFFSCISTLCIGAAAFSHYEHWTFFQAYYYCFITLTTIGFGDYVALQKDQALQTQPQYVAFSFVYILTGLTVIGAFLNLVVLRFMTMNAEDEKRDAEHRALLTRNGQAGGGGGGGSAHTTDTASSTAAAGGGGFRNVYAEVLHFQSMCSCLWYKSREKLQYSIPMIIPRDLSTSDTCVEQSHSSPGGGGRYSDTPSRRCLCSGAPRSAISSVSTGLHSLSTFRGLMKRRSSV
# Potassium voltage-gated channel subfamily KQT member 2 (Homo sapiens), sequence (O43526 whole entry): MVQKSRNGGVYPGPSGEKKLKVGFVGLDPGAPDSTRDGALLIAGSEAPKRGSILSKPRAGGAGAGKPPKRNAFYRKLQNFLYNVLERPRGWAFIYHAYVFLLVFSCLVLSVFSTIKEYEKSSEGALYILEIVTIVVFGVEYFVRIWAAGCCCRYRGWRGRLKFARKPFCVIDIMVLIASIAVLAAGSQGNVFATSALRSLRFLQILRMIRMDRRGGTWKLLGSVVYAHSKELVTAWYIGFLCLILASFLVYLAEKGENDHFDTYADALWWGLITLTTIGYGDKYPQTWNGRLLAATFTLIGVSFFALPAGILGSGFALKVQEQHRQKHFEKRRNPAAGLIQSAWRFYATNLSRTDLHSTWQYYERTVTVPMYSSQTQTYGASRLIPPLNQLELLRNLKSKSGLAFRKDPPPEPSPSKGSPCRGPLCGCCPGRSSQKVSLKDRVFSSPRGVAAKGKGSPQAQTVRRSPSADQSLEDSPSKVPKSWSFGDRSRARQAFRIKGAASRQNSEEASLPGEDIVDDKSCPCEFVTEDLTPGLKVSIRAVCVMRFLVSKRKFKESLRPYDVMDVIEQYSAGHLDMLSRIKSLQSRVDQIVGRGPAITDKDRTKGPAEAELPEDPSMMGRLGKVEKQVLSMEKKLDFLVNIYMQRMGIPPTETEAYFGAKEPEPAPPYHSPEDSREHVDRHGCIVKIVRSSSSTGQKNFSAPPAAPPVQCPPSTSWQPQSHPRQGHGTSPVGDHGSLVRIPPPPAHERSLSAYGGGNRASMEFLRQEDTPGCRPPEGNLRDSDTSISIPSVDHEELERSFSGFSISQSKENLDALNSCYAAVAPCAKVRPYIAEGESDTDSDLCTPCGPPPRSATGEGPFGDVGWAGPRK
structure (smiles),measurement,setting,value
CC1(C)c2cc(Cl)ccc2N(CCc2nnn[nH]2)c2ccc(Cl)cc21,Emax,[1],14.7
same,EC50,[2],49.4 µM
same,Activity,[3],Active
same,Emax,[4],1.1
same,Emax,[5],1.7%
same,Emax,[6],11.4%
same,Emax,[7],14.7%
same,Emax,[8],1.7
same,T1/2,[9],4.1 s
same,Activity,[10],inactive
same,EC50,[11],36.3 to 38.5 µM
same,Emax,[12],11.4%
